# Experimental data: patent publication US20080200454A1, “CARBON-LINKED TETRAHYDRO-PYRAZOLO-PYRIDINE MODULATORS OF CATHEPSIN S” (priority 2007, published 2008)
# Where two headings read alike, the source gives them in different places.
# Biological target: Recombinant human cathepsin S (CatS) (Homo sapiens, UniProt P25774)
# Experiment: Recombinant human cathepsin S (CatS) inhibition assay, fluorogenic substrate Z-Valine-Valine-Arginine-AMC;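 also: Baculovirus-expressed CatS in pH 5.0 sodium acetate buffer with DTT and NaCl, fluorescence read each minute over 20 min, inhibition derived from rate slope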
# Recombinant human cathepsin S (CatS), sequence (P25774 115-331): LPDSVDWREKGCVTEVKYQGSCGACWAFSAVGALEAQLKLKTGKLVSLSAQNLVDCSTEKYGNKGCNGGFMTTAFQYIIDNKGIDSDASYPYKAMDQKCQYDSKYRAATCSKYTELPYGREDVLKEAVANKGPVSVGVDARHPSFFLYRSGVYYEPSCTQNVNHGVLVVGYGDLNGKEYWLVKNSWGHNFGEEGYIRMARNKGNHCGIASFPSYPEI
IC50 [nM],Compound,IC50 (CatS IC50) [nM]
350,"CC(C)(C)OC(=O)N1CCc2cc(C#Cc3cc(-c4nn(CCCN5CCOCC5)c5c4CN(S(C)(=O)=O)CC5)ccc3Cl)ccc2C1=O [Example 525, 1,1-Dimethylethyl 6-({2-chloro-5-[5-(methylsulfonyl)-1-(3-morpholin-4-ylpropyl)-4,5,6,7-tetrahydro-1H-pyrazolo[4,3-c]pyridin-3-yl]phenyl}ethynyl)-1-oxo-3,4-dihydroisoquinoline-2(1H)-carboxylate]",
,"CCOC(=O)CN1CCc2cc(C#Cc3cc(-c4nn(CCCN5CCOCC5)c5c4CN(S(C)(=O)=O)CC5)ccc3Cl)ccc2C1 [Example 526, Ethyl [6-({2-chloro-5-[5-(methylsulfonyl)-1-(3-morpholin-4-ylpropyl)-4,5,6,7-tetrahydro-1H-pyrazolo[4,3-c]pyridin-3-yl]phenyl}ethynyl)-3,4-dihydroisoquinolin-2(1H)-yl]acetate]",370
,"C=CCN1CCc2cc(C#Cc3cc(-c4nn(CCCN5CCOCC5)c5c4CN(S(C)(=O)=O)CC5)ccc3Cl)ccc2C1 [Example 527, 6-({2-Chloro-5-[5-(methylsulfonyl)-1-(3-morpholin-4-ylpropyl)-4,5,6,7-tetrahydro-1H-pyrazolo[4,3-c]pyridin-3-yl]phenyl}ethynyl)-2-prop-2-en-1-yl-1,2,3,4-tetrahydroisoquinoline]",300
,"CN(Cc1ccccc1)Cc1cccc(C#Cc2cc(-c3nn(CCCN4CCOCC4)c4c3CN(S(C)(=O)=O)CC4)ccc2Cl)c1 [Example 528, 1-[3-({2-Chloro-5-[5-(methylsulfonyl)-1-(3-morpholin-4-ylpropyl)-4,5,6,7-tetrahydro-1H-pyrazolo[4,3-c]pyridin-3-yl]phenyl}ethynyl)phenyl]-N-methyl-N-(phenylmethyl)methanamine]",580
,"C[C@H]1COCCN1C[C@@H](O)Cn1nc(-c2ccc(Cl)c(C#Cc3ccc(CNCc4ccc(Cl)cc4)cc3)c2)c2c1CCN(S(C)(=O)=O)C2 [Example 529, (2R)-1-[3-(4-Chloro-3-{[4-({[(4-chlorophenyl)methyl]amino}methyl)phenyl]ethynyl}phenyl)-5-(methylsulfonyl)-4,5,6,7-tetrahydro-1H-pyrazolo[4,3-c]pyridin-1-yl]-3-[(3S)-3-methylmorpholin-4-yl]propan-2-ol]",120
1330,"CN(Cc1ccccc1)Cc1cccc(CCc2cc(-c3nn(CCCN4CCOCC4)c4c3CN(S(C)(=O)=O)CC4)ccc2Cl)c1 [Example 530, 1-[3-(2-{2-Chloro-5-[5-(methylsulfonyl)-1-(3-morpholin-4-ylpropyl)-4,5,6,7-tetrahydro-1H-pyrazolo[4,3-c]pyridin-3-yl]phenyl}ethyl)phenyl]-N-methyl-N-(phenylmethyl)methanamine]",
,"CC(C)CNCc1cccc(CCc2cc(-c3nn(CCCN4CCOCC4)c4c3CN(S(C)(=O)=O)CC4)ccc2Cl)c1 [Example 531, N-{[3-(2-{2-Chloro-5-[5-(methylsulfonyl)-1-(3-morpholin-4-ylpropyl)-4,5,6,7-tetrahydro-1H-pyrazolo[4,3-c]pyridin-3-yl]phenyl}ethyl)phenyl]methyl}-2-methylpropan-1-amine]",640
,"Cc1ccccc1CNCc1ccc(C#Cc2cc(-c3nn(CCCN4CCSCC4)c4c3CN(C(N)=O)CC4)ccc2Cl)cc1 [Example 532, 3-(4-Chloro-3-{[4-({[(2-methylphenyl)methyl]amino}methyl)phenyl]ethynyl}phenyl)-1-(3-thiomorpholin-4-ylpropyl)-1,4,6,7-tetrahydro-5H-pyrazolo[4,3-c]pyridine-5-carboxamide]",90
,"COc1ccccc1CNCc1ccc(C#Cc2cc(-c3nn(CCCN4CCSCC4)c4c3CN(C(N)=O)CC4)ccc2Cl)cc1 [Example 533, 3-[4-Chloro-3-({4-[({[2-(methyloxy)phenyl]methyl}amino)methyl]phenyl}ethynyl)phenyl]-1-(3-thiomorpholin-4-ylpropyl)-1,4,6,7-tetrahydro-5H-pyrazolo[4,3-c]pyridine-5-carboxamide]",100
,"COc1cccc(CNCc2ccc(C#Cc3cc(-c4nn(CCCN5CCSCC5)c5c4CN(C(N)=O)CC5)ccc3Cl)cc2)c1 [Example 534, 3-[4-Chloro-3-({4-[({[3-(methyloxy)phenyl]methyl}amino)methyl]phenyl}ethynyl)phenyl]-1-(3-thiomorpholin-4-ylpropyl)-1,4,6,7-tetrahydro-5H-pyrazolo[4,3-c]pyridine-5-carboxamide]",90
,"CS(=O)(=O)N1CCc2c(c(-c3ccc(Cl)c(CCc4cccc(CNCc5ccccc5)c4)c3)nn2CCCN2CCOCC2)C1 [Example 535, 1-[3-(2-{2-Chloro-5-[5-(methylsulfonyl)-1-(3-morpholin-4-ylpropyl)-4,5,6,7-tetrahydro-1H-pyrazolo[4,3-c]pyridin-3-yl]phenyl}ethyl)phenyl]-N-(phenylmethyl)methanamine]",640
200,"C[C@@H]1COCCN1CCCn1nc(-c2ccc(Cl)c(C#Cc3ccc(CNCc4ccc(Cl)cc4)cc3)c2)c2c1CCN(S(C)(=O)=O)C2 [Example 536, 1-[4-({2-Chloro-5-[1-{3-[(3R)-3-methylmorpholin-4-yl]propyl}-5-(methylsulfonyl)-4,5,6,7-tetrahydro-1H-pyrazolo[4,3-c]pyridin-3-yl]phenyl}ethynyl)phenyl]-N-[(4-chlorophenyl)methyl]methanamine]",
,"CS(=O)(=O)N1CCc2c(c(-c3ccc(Cl)c(C#Cc4ccc(CNCc5ccc(Cl)cc5)cc4)c3)nn2CCCN2CC[S+]([O-])CC2)C1 [Example 537, 1-{4-[(2-Chloro-5-{5-(methylsulfonyl)-1-[3-(1-oxidothiomorpholin-4-yl)propyl]-4,5,6,7-tetrahydro-1H-pyrazolo[4,3-c]pyridin-3-yl}phenyl)ethynyl]phenyl}-N-[(4-chlorophenyl)methyl]methanamine]",280
,"COc1ccc(CNCc2ccc(C#Cc3cc(-c4nn(CCCN5CCSCC5)c5c4CN(C(N)=O)CC5)ccc3Cl)cc2)cc1 [Example 538, 3-[4-Chloro-3-({4-[({[4-(methyloxy)phenyl]methyl}amino)methyl]phenyl}ethynyl)phenyl]-1-(3-thiomorpholin-4-ylpropyl)-1,4,6,7-tetrahydro-5H-pyrazolo[4,3-c]pyridine-5-carboxamide]",110
,"C[C@H]1COCCN1CCCn1nc(-c2ccc(Cl)c(C#Cc3ccc(F)c(CNCc4ccccc4)c3)c2)c2c1CCN(S(C)(=O)=O)C2 [Example 539, 1-[5-({2-Chloro-5-[1-{3-[(3S)-3-methylmorpholin-4-yl]propyl}-5-(methylsulfonyl)-4,5,6,7-tetrahydro-1H-pyrazolo[4,3-c]pyridin-3-yl]phenyl}ethynyl)-2-fluorophenyl]-N-(phenylmethyl)methanamine]",210
140,"COc1ccc(C#Cc2cc(-c3nn(CCCN4CCOCC4)c4c3CN(S(C)(=O)=O)CC4)ccc2Cl)cc1CNCc1ccccc1 [Example 540, 1-[5-({2-Chloro-5-[5-(methylsulfonyl)-1-(3-morpholin-4-ylpropyl)-4,5,6,7-tetrahydro-1H-pyrazolo[4,3-c]pyridin-3-yl]phenyl}ethynyl)-2-(methyloxy)phenyl]-N-(phenylmethyl)methanamine]",
,"CS(=O)(=O)N1CCc2c(c(-c3ccc(Cl)c(C#Cc4ccc5c(c4)CN[C@@H](C(=O)N4CCOCC4)C5)c3)nn2CCCN2CCOCC2)C1 [Example 541, (3R)-7-({2-Chloro-5-[5-(methylsulfonyl)-1-(3-morpholin-4-ylpropyl)-4,5,6,7-tetrahydro-1H-pyrazolo[4,3-c]pyridin-3-yl]phenyl}ethynyl)-3-(morpholin-4-ylcarbonyl)-1,2,3,4-tetrahydroisoquinoline]",960
,"NC(=O)N1CCc2c(c(-c3ccc(Cl)c(C#Cc4ccc(CNCc5ccccc5F)cc4)c3)nn2CCCN2CCSCC2)C1 [Example 542, 3-(4-Chloro-3-{[4-({[(2-fluorophenyl)methyl]amino}methyl)phenyl]ethynyl}phenyl)-1-(3-thiomorpholin-4-ylpropyl)-1,4,6,7-tetrahydro-5H-pyrazolo[4,3-c]pyridine-5-carboxamide]",180
,"CS(=O)(=O)N1CCc2c(c(-c3ccc(Cl)c(C#Cc4ccc(CNCc5ccccc5)c(Cl)c4)c3)nn2CCCN2CCOCC2)C1 [Example 545, 1-[2-Chloro-4-({2-chloro-5-[5-(methylsulfonyl)-1-(3-morpholin-4-ylpropyl)-4,5,6,7-tetrahydro-1H-pyrazolo[4,3-c]pyridin-3-yl]phenyl}ethynyl)phenyl]-N-(phenylmethyl)methanamine]",270
,"CS(=O)(=O)N1CCc2c(c(-c3ccc(Cl)c(C#Cc4ccc(CNCc5ccc(Cl)cc5)c(Cl)c4)c3)nn2CCCN2CCOCC2)C1 [Example 546, 1-[2-Chloro-4-({2-chloro-5-[5-(methylsulfonyl)-1-(3-morpholin-4-ylpropyl)-4,5,6,7-tetrahydro-1H-pyrazolo[4,3-c]pyridin-3-yl]phenyl}ethynyl)phenyl]-N-[(4-chlorophenyl)methyl]methanamine]",300
120,"NC(=O)N1CCc2c(c(-c3ccc(Cl)c(C#Cc4ccc(C(=O)NCc5ccc(Cl)cc5)cc4)c3)nn2CCCN2CCSCC2)C1 [Example 547, 3-(4-Chloro-3-{[4-({[(4-chlorophenyl)methyl]amino}carbonyl)phenyl]ethynyl}phenyl)-1-(3-thiomorpholin-4-ylpropyl)-1,4,6,7-tetrahydro-5H-pyrazolo[4,3-c]pyridine-5-carboxamide]",
120,"NC(=O)N1CCc2c(c(-c3ccc(Cl)c(C#Cc4ccc(COCC5CNCCO5)cc4)c3)nn2CCCN2CCSCC2)C1 (centres unmarked) [Example 548, 3-{4-Chloro-3-[(4-{[(morpholin-2-ylmethyl)oxy]methyl}phenyl)ethynyl]phenyl}-1-(3-thiomorpholin-4-ylpropyl)-1,4,6,7-tetrahydro-5H-pyrazolo[4,3-c]pyridine-5-carboxamide]",
,"NC(=O)N1CCc2c(c(-c3ccc(Cl)c(C#Cc4ccc(CN5CCC(N6C[C@H](O)CC6=O)CC5)cc4)c3)nn2CCCN2CCSCC2)C1 [Example 549, 3-(4-Chloro-3-{[4-({4-[(4R)-4-hydroxy-2-oxopyrrolidin-1-yl]piperidin-1-yl}methyl)phenyl]ethynyl}phenyl)-1-(3-thiomorpholin-4-ylpropyl)-1,4,6,7-tetrahydro-5H-pyrazolo[4,3-c]pyridine-5-carboxamide]",1010
